Measured values reported in patent US20210122730A1, “GLUCOCORTICOID RECEPTOR MODULATORS” (ORIC Pharmaceuticals, Inc., priority 2017, published 2021).
pIC50: −log10 of the molar value.

Experiments:
GR = target: T1, GR (Homo sapiens, UniProt P04150); assay: In Vitro GR Luciferase Reporter Assay (antagonist mode, CHO-K1-GR-MMTV-Luc reporter cells); type: cell-based
T1 construct: expressed in transfected cells; host or cells: CHO-K1
T1 sequence (P04150 1-777): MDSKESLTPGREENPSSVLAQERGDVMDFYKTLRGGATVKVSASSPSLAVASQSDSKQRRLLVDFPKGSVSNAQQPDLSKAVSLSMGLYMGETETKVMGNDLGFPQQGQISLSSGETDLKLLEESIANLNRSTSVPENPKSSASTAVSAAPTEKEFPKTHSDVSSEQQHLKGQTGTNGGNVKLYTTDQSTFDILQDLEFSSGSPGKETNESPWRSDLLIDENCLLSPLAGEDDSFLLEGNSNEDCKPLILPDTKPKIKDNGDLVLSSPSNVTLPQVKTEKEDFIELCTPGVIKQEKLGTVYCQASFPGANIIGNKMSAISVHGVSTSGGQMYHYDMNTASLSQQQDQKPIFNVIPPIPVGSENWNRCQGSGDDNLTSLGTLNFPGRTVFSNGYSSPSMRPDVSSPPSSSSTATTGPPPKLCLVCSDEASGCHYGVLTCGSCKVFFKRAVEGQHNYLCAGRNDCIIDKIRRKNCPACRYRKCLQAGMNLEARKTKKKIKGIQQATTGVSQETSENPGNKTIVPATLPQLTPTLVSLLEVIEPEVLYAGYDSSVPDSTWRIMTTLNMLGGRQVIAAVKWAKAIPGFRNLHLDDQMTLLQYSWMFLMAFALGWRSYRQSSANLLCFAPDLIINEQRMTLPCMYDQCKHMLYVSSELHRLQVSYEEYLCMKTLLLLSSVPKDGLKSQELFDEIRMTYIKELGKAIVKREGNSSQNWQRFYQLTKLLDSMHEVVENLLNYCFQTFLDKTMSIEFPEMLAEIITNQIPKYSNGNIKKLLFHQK
In short: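 CHO-K1-GR-MMTV-Luc cells in phenol red-free DMEM with 10% CSS, stimulated with 10 nM dexamethasone (final) and treated with 8-point 1:5 compound dilutions for about 18-24 h at 37° C. Luciferase measured by OneGlo luminescence; IC50 derived for inhibition of GR activity.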

CYP2C8 = target: T2, CYP2C8 (Homo sapiens, UniProt P10632); assay: CYP Inhibition Assay (CYP2C8, human liver microsomes, paclitaxel substrate); type: in vitro ADME; details: pH 7.4; pooled human liver microsomes 0.1 mg/mL, probe substrate paclitaxel
T2 construct: Pooled human microsomes were obtained from Sekisui XenoTech, KS; tissue Sekisui XenoTech, KS; host or cells: pooled human liver microsomes
T2 sequence (P10632 1-490): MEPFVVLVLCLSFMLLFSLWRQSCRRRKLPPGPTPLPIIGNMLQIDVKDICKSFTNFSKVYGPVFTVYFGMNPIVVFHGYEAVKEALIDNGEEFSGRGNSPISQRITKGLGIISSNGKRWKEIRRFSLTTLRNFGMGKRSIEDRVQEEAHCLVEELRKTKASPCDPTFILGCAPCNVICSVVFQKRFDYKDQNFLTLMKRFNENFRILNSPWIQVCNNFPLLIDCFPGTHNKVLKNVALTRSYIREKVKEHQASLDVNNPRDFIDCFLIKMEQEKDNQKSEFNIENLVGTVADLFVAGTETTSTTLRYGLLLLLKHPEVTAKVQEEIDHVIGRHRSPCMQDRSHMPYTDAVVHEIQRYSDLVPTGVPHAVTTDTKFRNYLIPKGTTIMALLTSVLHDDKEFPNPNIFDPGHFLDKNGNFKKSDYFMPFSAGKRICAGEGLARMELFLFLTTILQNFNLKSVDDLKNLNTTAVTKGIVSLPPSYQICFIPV
Description: Example B: CYP Inhibition Assay
Objective: To assess the % inhibition of test compounds against CYP2C8 enzyme in human liver microsomes.
Pooled human microsomes were obtained from Sekisui XenoTech, KS, and were used for in vitro assessment of compound inhibitory potential of the major drug metabolizing human CYP enzymes.
Test compounds were dissolved in DMSO as 10 mM stock solutions and diluted to 200 µM in acetonitrile as working solutions. The total concentrations of DMSO and acetonitrile were 0.02% and 0.5%, respectively, in the assay.
The assay was performed in duplicate in a 96-well plate. The reaction mixture ([…]) containing a final concentration of 0.1 mg/mL pooled human liver microsomes, 50 mM potassium phosphate, pH 7.4 buffer, was re-warmed at 37° C. for 5 minutes. The reaction was initiated with NADPH solution which was at 1 mM final concentration, and carried out for 5 minutes at 37° C. It was terminated by the addition of 3-fold volume of quench solution (1:1 acetonitrile:methanol with 0.1% formic acid and the internal standard of tolbutamide). The sample was vortexed, centrifuged at 4,000 rpm for 15 min at 4° C. The incubation in the presence of vehicle (0.02% DMSO and 0.5% acetonitrile) was used as the enzyme activity control. The analyses of metabolite 6α-hydroxypaclitaxel in supernatant was performed with LC-MS/MS method (Sciex API 4500 Qtrap coupled to a Shimadzu LC-20AD HPLC).
The CYP enzyme activity was determined based on the formation of 6a-hydroxypaclitaxel metabolite. The % inhibition was calculated using this equation: % Inhibition=100×(1−Ainactivator/Avehicle), where Ainactivator is the CYP enzyme activity in the presence of test compound, and Avehicle is the CYP activity in the presence of vehicle.

[1] = antagonist mode, 10 nM Dexamethasone
[2] = antagonist assay with 10 nM Dexamethasone, 18-24 hours

Compound	pIC50 (GR; [1])	inhibition at 5 min (CYP2C8) [%]	pIC50 (GR; [2])
CN(C(=O)[C@H]1CCC2=Cc3c(cnn3-c3ccc(F)cc3)C[C@]2(C(=O)c2cc(C(F)(F)F)ccn2)C1)c1cnn(C)c1 (single isomer, unassigned) [Example 122]	≥ 7.00	≤ 25	
CN([C@H]1CCC2=Cc3c(cnn3-c3ccc(F)cc3)C[C@]2(C(=O)c2ccccn2)C1)S(=O)(=O)c1ccc(Cl)cc1 [Example 4, 4-Chloro-N-((4aS,6S)-1-(4-fluorophenyl)-4a-picolinoyl-4,4a,5,6,7,8-hexahydro-1H-benzo[f]indazol-6-yl)-N-methylbenzenesulfonamide]		50 to 75	≥ 7.00
CCn1ncc(S(=O)(=O)[C@H]2CCC3=Cc4c(cnn4-c4ccc(F)cc4)C[C@]3(C(=O)c3cc(C(F)(F)F)ccn3)C2)n1 [Example 52, ((4aS,6S)-6-((2-ethyl-2H-1,2,3-triazol-4-yl)sulfonyl)-1-(4-fluorophenyl)-1,4,5,6,7,8-hexahydro-4aH-benzo[f]indazol-4a-yl)(4-(trifluoromethyl)pyridin-2-yl)methanone]		75 to 90	≥ 7.00
O=C(c1ccc(C(F)(F)F)cn1)[C@]12Cc3cnn(-c4ccc(F)cc4)c3C=C1CC[C@H](S(=O)(=O)c1ccc(F)cc1)C2 [Example 55, ((4aS,6S)-1-(4-fluorophenyl)-6-((4-fluorophenyl)sulfonyl)-1,4,5,6,7,8-hexahydro-4aH-benzo[f]indazol-4a-yl)(5-(trifluoromethyl)pyridin-2-yl)methanone]		≤ 25	≥ 7.00
CC(C)n1ncc(S(=O)(=O)[C@H]2CCC3=Cc4c(cnn4-c4ccc(F)cc4)C[C@]3(C(=O)c3cc(C(F)(F)F)ccn3)C2)n1 [Example 56, ((4aS,6S)-1-(4-fluorophenyl)-6-((2-isopropyl-2H-1,2,3-triazol-4-yl)sulfonyl)-1,4,5,6,7,8-hexahydro-4aH-benzo[f]indazol-4a-yl)(4-(trifluoromethyl)pyridin-2-yl)methanone]		75 to 90	≥ 7.00
Cn1cc(S(=O)(=O)[C@H]2CCC3=Cc4c(cnn4-c4ccc(F)cc4)C[C@]3(C(=O)c3ccc(C(F)(F)F)cn3)C2)cn1 [Example 69, ((4aS,6S)-1-(4-fluorophenyl)-6-((1-methyl-1H-pyrazol-4-yl)sulfonyl)-1,4,5,6,7,8-hexahydro-4aH-benzo[f]indazol-4a-yl)(5-(trifluoromethyl)pyridin-2-yl)methanone]		≤ 25	≥ 7.00
CN([C@H]1CCC2=Cc3c(cnn3-c3ccc(F)cc3)C[C@]2(C(=O)c2cc(C(F)(F)F)ccn2)C1)S(=O)(=O)c1cnn(C)c1 [Example 81, N-((4aS,6S)-1-(4-fluorophenyl)-4a-(4-(trifluoromethyl)picolinoyl)-4,4a,5,6,7,8-hexahydro-1H-benzo[f]indazol-6-yl)-N,1-dimethyl-1H-pyrazole-4-sulfonamide]		25 to 50	≥ 7.00
CN([C@H]1CCC2=Cc3c(cnn3-c3ccc(F)cc3)C[C@]2(C(=O)c2cc(C(F)(F)F)ccn2)C1)S(=O)(=O)c1cnn(C)n1 [Example 90, N-((4aS,6S)-1-(4-fluorophenyl)-4a-(4-(trifluoromethyl)picolinoyl)-4,4a,5,6,7,8-hexahydro-1H-benzo[f]indazol-6-yl)-N,2-dimethyl-2H-1,2,3-triazole-4-sulfonamide]		50 to 75	≥ 7.00
CCN([C@H]1CCC2=Cc3c(cnn3-c3ccc(F)cc3)C[C@]2(C(=O)c2cc(C(F)(F)F)ccn2)C1)S(=O)(=O)c1cnn(C)c1 [Example 91, N-ethyl-N-((4aS,6S)-1-(4-fluorophenyl)-4a-(4-(trifluoromethyl)picolinoyl)-4,4a,5,6,7,8-hexahydro-1H-benzo[f]indazol-6-yl)-1-methyl-1H-pyrazole-4-sulfonamide]		50 to 75	≥ 7.00
CN([C@H]1CCC2=Cc3c(cnn3-c3ccc(F)cc3)C[C@]2(C(=O)c2ccc(C3CC3)cn2)C1)S(=O)(=O)c1cnn(C)c1 [Example 93, N-((4aS,6S)-4a-(5-cyclopropylpicolinoyl)-1-(4-fluorophenyl)-4,4a,5,6,7,8-hexahydro-1H-benzo[f]indazol-6-yl)-N,1-dimethyl-1H-pyrazole-4-sulfonamide]		75 to 90	≥ 7.00
CN([C@H]1CCC2=Cc3c(cnn3-c3ccc(F)cc3)C[C@]2(C(=O)c2cc(C(F)(F)F)ccn2)C1)S(=O)(=O)C1CCOCC1 [Example 94, N-((4aS,6S)-1-(4-fluorophenyl)-4a-(4-(trifluoromethyl)picolinoyl)-4,4a,5,6,7,8-hexahydro-1H-benzo[f]indazol-6-yl)-N-methyltetrahydro-2H-pyran-4-sulfonamide]		50 to 75	≥ 7.00
CN([C@H]1CCC2=Cc3c(cnn3-c3ccc(F)cc3)C[C@]2(C(=O)c2cc(C(F)(F)F)ccn2)C1)S(=O)(=O)c1ccc(Cl)cc1 [Example 99, 4-chloro-N-((4aS,6S)-1-(4-fluorophenyl)-4a-(4-(trifluoromethyl)picolinoyl)-4,4a,5,6,7,8-hexahydro-1H-benzo[f]indazol-6-yl)-N-methylbenzenesulfonamide]		25 to 50	≥ 7.00
Cn1cc(C(=O)N(C2CC2)[C@H]2CCC3=Cc4c(cnn4-c4ccc(F)cc4)C[C@]3(C(=O)c3cc(C(F)(F)F)ccn3)C2)cn1 [Example 102, N-cyclopropyl-N-((4aS,6S)-1-(4-fluorophenyl)-4a-(4-(trifluoromethyl)picolinoyl)-4,4a,5,6,7,8-hexahydro-1H-benzo[f]indazol-6-yl)-1-methyl-1H-pyrazole-4-carboxamide]		75 to 90	≥ 7.00
Cn1cnc(S(=O)(=O)N(CCF)[C@H]2CCC3=Cc4c(cnn4-c4ccc(F)cc4)C[C@]3(C(=O)c3ncc(C(F)(F)F)s3)C2)n1 [Example 112, N-(2-Fluoroethyl)-N-((4aS,6S)-1-(4-fluorophenyl)-4a-(5-(trifluoromethyl)thiazole-2-carbonyl)-4,4a,5,6,7,8-hexahydro-1H-benzo[f]indazol-6-yl)-1-methyl-1H-1,2,4-triazole-3-sulfonamide]		75 to 90	
Cn1cc(S(=O)(=O)N(C2CC(F)(F)C2)[C@H]2CCC3=Cc4c(cnn4-c4ccc(F)cc4)C[C@]3(C(=O)c3cc(C(F)(F)F)ccn3)C2)cn1 [Example 411, N-(3,3-difluorocyclobutyl)-N-((4aS,6S)-1-(4-fluorophenyl)-4a-(4-(trifluoromethyl)picolinoyl)-4,4a,5,6,7,8-hexahydro-1H-benzo[f]indazol-6-yl)-1-methyl-1H-pyrazole-4-sulfonamide]	≥ 7.00		
